# pIC50: −log10 of the molar value.
# Tests used:
# [1] = molecular target: hPARG (C-terminal His6-tag) (Homo sapiens (Human), UniProt Q86W56); assay: PARG Enzymatic Activity Assay (HTRF); type: biochemical; settings: hPARG 65 pM final, biotinylated-NAD ribosylated PARP1 8 nM final
# Method in brief: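 Readout is time-resolved fluorescence at 620 and 665 nm after 60 min RT detection with streptavidin-Eu cryptate and anti-6HIS-XL665; IC50 by 4-parameter fit, 1% DMSO and no-enzyme controls. Reaction: 8 nM final ribosylated PARP1 substrate for 10 min RT, following 60 min RT enzyme (65 pM)–compound preincubation in Tris pH 7.4 buffer with EDTA, DTT, KCl.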
# [2] = tested on: Kuramochi cell line; assay: Cell Viability Assay (Cell Titer-Glo, 7 days); type: cell-based; settings: 168 h, Kuramochi cells, 7 days incubation, read-out: PARG Cell viability (IC50)
# Method in brief: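 IC50 from a four-parameter fit of CellTiter-Glo luminescence, scaled between DMSO-treated (high) and medium-only (low) wells. Kuramochi cells (400/well, RPMI/10% FBS) exposed 7 days at 37 °C to 9 concentrations, 3-fold steps, in duplicate.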
# Chain of hPARG (C-terminal His6-tag) (Q86W56 whole entry): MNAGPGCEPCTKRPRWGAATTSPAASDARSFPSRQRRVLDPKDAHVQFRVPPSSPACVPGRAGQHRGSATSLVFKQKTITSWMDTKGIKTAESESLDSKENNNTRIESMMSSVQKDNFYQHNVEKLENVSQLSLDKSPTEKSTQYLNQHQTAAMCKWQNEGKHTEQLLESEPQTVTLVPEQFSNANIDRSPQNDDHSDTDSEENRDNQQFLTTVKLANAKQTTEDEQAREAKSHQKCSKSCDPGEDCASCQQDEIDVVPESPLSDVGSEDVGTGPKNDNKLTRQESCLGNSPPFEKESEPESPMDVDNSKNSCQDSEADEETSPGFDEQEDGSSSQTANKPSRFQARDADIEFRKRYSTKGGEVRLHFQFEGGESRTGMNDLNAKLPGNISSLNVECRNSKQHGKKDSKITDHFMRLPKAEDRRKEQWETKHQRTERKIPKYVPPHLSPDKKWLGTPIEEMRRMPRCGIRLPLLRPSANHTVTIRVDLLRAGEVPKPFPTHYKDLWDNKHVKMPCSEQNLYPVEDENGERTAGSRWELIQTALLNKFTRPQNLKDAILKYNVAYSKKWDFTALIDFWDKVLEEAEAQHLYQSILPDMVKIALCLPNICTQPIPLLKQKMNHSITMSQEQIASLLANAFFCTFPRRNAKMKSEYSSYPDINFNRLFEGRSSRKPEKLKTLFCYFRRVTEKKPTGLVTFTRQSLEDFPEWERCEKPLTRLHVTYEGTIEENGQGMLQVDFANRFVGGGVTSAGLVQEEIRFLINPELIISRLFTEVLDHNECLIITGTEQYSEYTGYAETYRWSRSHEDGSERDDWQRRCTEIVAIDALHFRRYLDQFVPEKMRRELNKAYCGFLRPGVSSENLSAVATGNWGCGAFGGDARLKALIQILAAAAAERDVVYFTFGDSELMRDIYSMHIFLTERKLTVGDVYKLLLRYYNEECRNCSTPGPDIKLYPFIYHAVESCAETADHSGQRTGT
SMILES,pIC50 [1],pIC50 [2]
"CC(C)(O)C(=O)N1CCC(c2ncnc3c2c2ccc(S(=O)(=O)NC4(C#N)CC4)cc2n3-c2nnc(C(F)F)s2)CC1 [Example 118, N-(1-cyanocyclopropyl)-9-(5-(difluoromethyl)-1,3,4-thiadiazol-2-yl)-4-(1-(2-hydroxy-2-methylpropanoyl)piperidin-4-yl)-9H-pyrimido[4,5-b]indole-7-sulfonamide]",> 7.00,> 7.00
"C[C@@H]1CN(c2ncnc3c2c2ccc(S(=O)(=O)NC4(C#N)CC4)cc2n3-c2nnc(C(F)F)s2)C[C@H](C)N1C(=O)CN1CCOCC1 [Example 39, N-(1-Cyanocyclopropyl)-9-(5-(difluoromethyl)-1,3,4-thiadiazol-2-yl)-4-((3R,5S)-3,5-dimethyl-4-(2-morpholinoacetyl)piperazin-1-yl)-9H-pyrimido[4,5-b]indole-7-sulfonamide]",> 7.00,> 7.00
"CC(C)OC(=O)N1CCN(c2ncnc3c2c2ccc(S(=O)(=O)NC4(C#N)CC4)cc2n3-c2nnc(C(F)F)s2)CC1 [Example 15, Isopropyl 4-(7-(N-(1-cyanocyclopropyl)sulfamoyl)-9-(5-(difluoromethyl)-1,3,4-thiadiazol-2-yl)-9H-pyrimido[4,5-b]indol-4-yl)piperazine-1-carboxylate]",6.00 to 7.00,6.00 to 7.00
"CN(C)C(=O)N1CCC(c2ccnc3c2c2ccc(S(=O)(=O)NC4(C)CC4)cc2n3-c2nnc(C(F)F)s2)CC1 [Example 195, 4-(9-(5-(Difluoromethyl)-1,3,4-thiadiazol-2-yl)-7-(N-(1-methylcyclopropyl)sulfamoyl)-9H-pyrido[2,3-b]indol-4-yl)-N,N-dimethylpiperidine-1-carboxamide]",> 7.00,6.00 to 7.00
"CC(C)C(=O)N1CC=C(c2ncnc3c2c2cc(F)c(S(=O)(=O)NC4(C)CC4)cc2n3-c2nnc(C(F)F)s2)CC1 [Example 103, 9-(5-(Difluoromethyl)-1,3,4-thiadiazol-2-yl)-6-fluoro-4-(1-isobutyryl-1,2,3,6-tetrahydropyridin-4-yl)-N-(1-methylcyclopropyl)-9H-pyrimido[4,5-b]indole-7-sulfonamide]",> 7.00,> 7.00
"N#CC1(NS(=O)(=O)c2ccc3c4c(N5C[C@@H]6C[C@H]5CO6)ncnc4n(-c4nnc(C(F)F)s4)c3c2)CC1 [Example 177, 4-((1S,4S)-2-oxa-5-azabicyclo[2.2.1]heptan-5-yl)-N-(1-cyanocyclopropyl)-9-(5-(difluoromethyl)-1,3,4-thiadiazol-2-yl)-9H-pyrimido[4,5-b]indole-7-sulfonamide]",> 7.00,> 7.00
"CN1CCN(C(=O)N2CCN(c3ncnc4c3c3ccc(S(=O)(=O)NC5(C#N)CC5)cc3n4-c3nnc(C(F)F)s3)CC2)CC1 [Example 9, N-(1-Cyanocyclopropyl)-9-(5-(difluoromethyl)-1,3,4-thiadiazol-2-yl)-4-(4-(4-methylpiperazine-1-carbonyl)piperazin-1-yl)-9H-pyrimido[4,5-b]indole-7-sulfonamide]",> 7.00,6.00 to 7.00
"CN1CC=C(c2ncnc3c2c2ccc(S(=O)(=O)NC4(C#N)CC4)cc2n3-c2nnc(C(F)F)s2)CC1 [Example 77, N-(1-Cyanocyclopropyl)-9-(5-(difluoromethyl)-1,3,4-thiadiazol-2-yl)-4-(1-methyl-1,2,3,6-tetrahydropyridin-4-yl)-9H-pyrimido[4,5-b]indole-7-sulfonamide]",> 7.00,> 7.00
"N#CC1(NS(=O)(=O)c2ccc3c4c(C5CCN(C(=O)N6CC(O)C6)CC5)ncnc4n(-c4nnc(C(F)F)s4)c3c2)CC1 [Example 138, N-(1-cyanocyclo-propyl)-9-(5-(difluoromethyl)-1,3,4-thiadiazol-2-yl)-4-(1-(3-hydroxy-azetidine-1-carbonyl)piperidin-4-yl)-9H-pyrimido [4,5-b]indole-7-sulfonamide]",> 7.00,6.00 to 7.00
"N#CC1(NS(=O)(=O)c2ccc3c4c(C5CCCCO5)ncnc4n(-c4nnc(C(F)F)s4)c3c2)CC1 (centres unmarked) [Example 83, N-(1-cyanocyclopropyl)-9-(5-(difluoromethyl)-1,3,4-thiadiazol-2-yl)-4-(tetrahydro-2H-pyran-2-yl)-9H-pyrimido[4,5-b]indole-7-sulfonamide]",> 7.00,6.00 to 7.00
"N#CC1(NS(=O)(=O)c2ccc3c4c(N5CCN(C(=O)C6CC6)CC5)ncnc4n(-c4nnc(C(F)F)s4)c3c2)CC1 [Example 2, N-(1-Cyanocyclopropyl)-4-(4-(cyclopropanecarbonyl)piperazin-1-yl)-9-(5-(difluoromethyl)-1,3,4-thiadiazol-2-yl)-9H-pyrimido[4,5-b]indole-7-sulfonamide]",> 7.00,> 7.00
"CO[C@H]1CCN(c2ncnc3c2c2ccc(S(=O)(=O)NC4(C#N)CC4)cc2n3-c2nnc(C(F)F)s2)C[C@H]1F [Example 173, N-(1-cyanocyclopropyl)-9-(5-(difluoromethyl)-1,3,4-thiadiazol-2-yl)-4-((3R,4S)-3-fluoro-4-methoxypiperidin-1-yl)-9H-pyrimido[4,5-b]indole-7-sulfonamide]",> 7.00,> 7.00
"C[C@@H](O)C(=O)N1CCC(c2ncnc3c2c2ccc(S(=O)(=O)NC4(C#N)CC4)cc2n3-c2nnc(C(F)F)s2)CC1 [Example 107, (R)-N-(1-Cyanocyclopropyl)-9-(5-(difluoromethyl)-1,3,4-thiadiazol-2-yl)-4-(1-(2-hydroxypropanoyl)piperidin-4-yl)-9H-pyrimido[4,5-b]indole-7-sulfonamide]",> 7.00,> 7.00
"C[C@@H]1CN(c2ncnc3c2c2ccc(S(=O)(=O)NC4(C#N)CC4)cc2n3-c2nnc(C(F)F)s2)C[C@H](C)N1C(=O)C1COC1 [Example 58, N-(1-Cyanocyclopropyl)-9-(5-(difluoromethyl)-1,3,4-thiadiazol-2-yl)-4-((3S,5R)-3,5-dimethyl-4-(oxetane-3-carbonyl)piperazin-1-yl)-9H-pyrimido[4,5-b]indole-7-sulfonamide]",> 7.00,> 7.00
"C[C@@H]1CN(c2ncnc3c2c2ccc(S(=O)(=O)NC4(C#N)CC4)cc2n3-c2nnc(C(F)F)s2)CCO1 [Example 21, (R)-N-(1-cyanocyclopropyl)-9-(5-(difluoromethyl)-1,3,4-thiadiazol-2-yl)-4-(2-methylmorpholino)-9H-pyrimido[4,5-b]indole-7-sulfonamide]",> 7.00,6.00 to 7.00
"C[C@H](N)C(=O)N1CCC(c2ncnc3c2c2ccc(S(=O)(=O)NC4(C#N)CC4)cc2n3-c2nnc(C(F)F)s2)CC1 [Example 128, 4-(1-(L-alanyl)piperidin-4-yl)-N-(1-cyanocyclopropyl)-9-(5-(difluoromethyl)-1,3,4-thiadiazol-2-yl)-9H-pyrimido[4,5-b]indole-7-sulfonamide]",> 7.00,6.00 to 7.00
"N#CC1(NS(=O)(=O)c2ccc3c4c(N5CCN(C(=O)C6CCC6)CC5)ncnc4n(-c4nnc(C(F)F)s4)c3c2)CC1 [Example 30, N-(1-Cyanocyclopropyl)-4-(4-(cyclobutanecarbonyl)piperazin-1-yl)-9-(5-(difluoromethyl)-1,3,4-thiadiazol-2-yl)-9H-pyrimido[4,5-b]indole-7-sulfonamide]",> 7.00,6.00 to 7.00
"N#CC1(NS(=O)(=O)c2ccc3c4c(N5CCN(c6ncccn6)CC5)ncnc4n(-c4nnc(C(F)F)s4)c3c2)CC1 [Example 18, N-(1-Cyanocyclopropyl)-9-(5-(difluoromethyl)-1,3,4-thiadiazol-2-yl)-4-(4-(pyrimidin-2-yl)piperazin-1-yl)-9H-pyrimido[4,5-b]indole-7-sulfonamide]",6.00 to 7.00,6.00 to 7.00
"N#CC1(NS(=O)(=O)c2ccc3c4c(N5C[C@H]6COC[C@H]6C5)ncnc4n(-c4nnc(C(F)F)s4)c3c2)CC1 [Example 169, N-(1-Cyanocyclopropyl)-9-(5-(difluoromethyl)-1,3,4-thiadiazol-2-yl)-4-((3aR,6aS)-tetrahydro-1H-furo[3,4-c]pyrrol-5(3H)-yl)-9H-pyrimido[4,5-b]indole-7-sulfonamide]",> 7.00,> 7.00
"CO[C@@H](C)C(=O)N1CCC(c2ncnc3c2c2ccc(S(=O)(=O)NC4(C#N)CC4)cc2n3-c2nnc(C(F)F)s2)CC1 [Example 108, (S)-N-(1-Cyanocyclopropyl)-9-(5-(difluoromethyl)-1,3,4-thiadiazol-2-yl)-4-(1-(2-methoxypropanoyl)piperidin-4-yl)-9H-pyrimido[4,5-b]indole-7-sulfonamide]",> 7.00,> 7.00
"Cc1ccc(C(=O)N2CCN(c3ncnc4c3c3ccc(S(=O)(=O)NC5(C#N)CC5)cc3n4-c3nnc(C(F)F)s3)CC2)nc1 [Example 35, N-(1-Cyanocyclopropyl)-9-(5-(difluoromethyl)-1,3,4-thiadiazol-2-yl)-4-(4-(5-methylpicolinoyl)piperazin-1-yl)-9H-pyrimido[4,5-b]indole-7-sulfonamide]",> 7.00,> 7.00
"CO[C@H](C)C(=O)N1CCC(c2ncnc3c2c2ccc(S(=O)(=O)NC4(C)CC4)cc2n3-c2nnc(C(F)F)s2)CC1 [Example 95, (R)-9-(5-(Difluoromethyl)-1,3,4-thiadiazol-2-yl)-4-(1-(2-methoxypropanoyl)piperidin-4-yl)-N-(1-methylcyclopropyl)-9H-pyrimido[4,5-b]indole-7-sulfonamide]",> 7.00,> 7.00
